We go through 21 compounds from patent publication US5223513A, “Quinoline derivatives, their production and use” (Takeda Chemical Industries, Ltd., priority 1989, dated 1993).

As a reminder, the inhibition is the relative decrease from the control value, in per cent.

In test [1] the target is T1, acyl-CoA : cholesterol acyltransferase (ACAT) (Rattus norvegicus, UniProt Q7TQM4).
T1 construct: mucosal microsome fraction of the small intestine; from tissue; host or cells: mucosal microsome fraction of rat small intestine
T1 sequence (Q7TQM4 1-524): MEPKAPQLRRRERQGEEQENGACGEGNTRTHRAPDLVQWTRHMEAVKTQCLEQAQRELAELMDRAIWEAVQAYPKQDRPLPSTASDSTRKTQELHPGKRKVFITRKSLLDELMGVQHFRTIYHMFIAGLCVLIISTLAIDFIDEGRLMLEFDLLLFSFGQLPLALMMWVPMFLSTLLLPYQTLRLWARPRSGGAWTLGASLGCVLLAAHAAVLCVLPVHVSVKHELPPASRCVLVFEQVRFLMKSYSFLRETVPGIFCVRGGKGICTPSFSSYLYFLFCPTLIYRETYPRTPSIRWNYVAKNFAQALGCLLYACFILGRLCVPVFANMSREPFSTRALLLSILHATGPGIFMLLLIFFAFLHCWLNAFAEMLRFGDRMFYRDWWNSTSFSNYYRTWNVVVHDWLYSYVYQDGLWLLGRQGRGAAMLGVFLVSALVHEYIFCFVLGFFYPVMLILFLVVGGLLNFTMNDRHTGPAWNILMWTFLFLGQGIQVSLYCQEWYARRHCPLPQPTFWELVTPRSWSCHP
Description: Acyl-CoA : Cholesterol Acyltransferase (ACAT) inhibitory activity. The class given is biochemical. Conditions: for inhibition at 1 µM: 10^-6 M of test compound, production of labeled cholesterol ester, read-out: ACAT Inhibition Rate (%); for IC50: calculated by plotting inhibition rates obtained at plural concentrations, read-out: 50% inhibitory concentration (IC50). As for the experimental part:
The enzyme ACAT was prepared by the method of Heider et al. described in Journal of Lipid Research, Vol. 24, page 1127 (1982), from the mucosal microsome fraction of the small intestine of male, 6-week old Sprague-Dawley rats which had been fasted for 20 hours.
ACAT activity was calculated by the method of Helgerud et al. described in Journal of Lipid Research, Vol. 22, page 271 (1981), namely, by measuring the amount of the labeled cholesterol ester produced from [1-^14 C] oleoyl-CoA and endogenous cholesterol. […]

Test [2] in a line: Plasma Cholesterol Lowering Activity in Cholesterol Fed Rat. The class given is in vivo, rat (Sarague-Dawely). Particulars: 1% cholesterol diet containing 0.0003% of test compound for 7 days; Example 3 dose 0.27 ± 0.02, Example 24 dose 0.24 ± 0.03 mg/kg/day; mean ± standard deviation; *p < 0.05 (t test vs control group 195 ± 32). Here is the method:
To 7-week old, male Sarague-Dawely rats which were grouped according to body weight was fed 1% cholesterol diet containing 0.5% of cholic acid, 5% of olive oil and 0.0003% of a test compound for 7 days. Blood was collected from the rats during 8:30-10:00 am at the fed state, and the plasma cholesterol level was measured enzymatically. The amount of test compound consumed by rats was calculated on the basis of the amount of the diet consumed by the rats.

Structures are written as SMILES.

In the case of `Cc1cc(C)c2c(c1)c(-c1ccccc1Cl)c(NC(=O)Nc1ccc(F)cc1F)c(=O)n2C` [Example 4, N-[4-(2-chlorophenyl)-1,2-dihydro-1,6,8-trimethyl-2-oxo-3-quinolyl]-N'-(2,4-difluorophenyl)urea], the inhibition at 1 µM in test [1] was found to be 97.1%. `Cc1ccccc1-c1c(NC(=O)Nc2ccc(F)cc2F)c(=O)n(C)c2ccc(Cl)cc12` [Example 20, N-[6-chloro-1,2-dihydro-1-methyl-4-(2-methylphenyl)-2-oxo-3-quinolyl]-N'-(2,4-difluorophenyl)urea]: in test [1], the inhibition at 1 µM is 96.1% and the IC50 is 35 nM. As to `Cc1cc2c(-c3ccccc3Cl)c(NC(=O)Nc3ccc(F)cc3F)c(=O)n(C)c2cc1C` [Example 3, N-[4-(2-chlorophenyl)-1,6,7-trimethyl-1,2-dihydro-2-oxo-3-quinolyl]-N'-(2,4-difluorophenyl)urea], in test [1], the inhibition at 1 µM stood at 98.7% and the IC50 is 6.4 nM. In test [2], the “Cholesterol in Serum” value is 129 ± 19 mg/dL. For `Cc1cccc(C(C)C)c1NC(=O)Nc1c(-c2ccccc2Cl)c2cc(Cl)ccc2n(C)c1=O` [Example 2], in test [1], the inhibition at 1 µM is 99.2% and the IC50 was 16 nM.

In the case of `CCc1ccc2c(c1)c(-c1ccccc1Cl)c(NC(=O)Nc1ccc(F)cc1F)c(=O)n2C` [Example 17, N-[4-(2-chlorophenyl)-1,2-dihydro-6-ethyl-1-methyl-2-oxo-3-quinolyl]-N'-(2,4-difluorophenyl)urea], in test [1], the inhibition at 1 µM is 96.5% and the IC50 was 25 nM. As for `Cc1cc(C)c2nc(C)c(NC(=O)Nc3ccc(F)cc3F)c(-c3ccccc3Cl)c2c1` [Example 13, N-[4-(2-chlorophenyl)-2,6,8-trimethyl-3-quinolyl]-N'-(2,4-difluorophenyl)urea], the inhibition at 1 µM in test [1] stood at 85.4%.

Turning to `Cc1cc2c(-c3ccccc3C)c(NC(=O)Nc3ccc(F)cc3F)c(=O)n(C)c2cc1Cl` [Example 24, N-[7-chloro-1,2-dihydro-4-(2-methylphenyl)-1,6-dimethyl-2-oxo-3-quinolyl]-N'-(2,4-difluorophenyl)urea], in test [1], the inhibition at 1 µM amounted to 99.2% and the IC50 was 9.3 nM. For the same compound, the “Cholesterol in Serum” value in test [2] came out at 113 ± 41 mg/dL. Turning to `COc1ccc(-c2c(NC(=O)Nc3c(C)cccc3C(C)C)c(=O)n(C)c3ccc(Cl)cc23)cc1OC` [Example 23], in test [1], the inhibition at 1 µM worked out at 99% and the IC50 was 41 nM. For `Cc1cc2c(-c3ccccc3C)c(NC(=O)Nc3ccc(F)cc3F)c(=O)n(C)c2cc1C` [Example 10, N-(2,4-difluorophenyl)-N'-(1,2-dihydro-1,6,7-trimethyl-4-(2-methylphenyl)-2-oxo-3-quinolyl]urea], in test [1], the inhibition at 1 µM was found to be 97.6% and the IC50 is 78 nM.

Take `COc1nc2ccc(Cl)cc2c(-c2ccccc2Cl)c1NC(=O)Nc1ccc(F)cc1F` [Example 9]: the inhibition at 1 µM in test [1] was determined as 89.6%.

Consider `COc1ccc(-c2c(NC(=O)Nc3ccc(F)cc3F)c(=O)n(C)c3ccc(C)cc23)cc1OC` [Example 11, N-(2,4-difluorophenyl)-N'-[1,2-dihydro-4-(3,4-di-methoxyphenyl) -1,6-dimethyl-2-oxo-3-quinolyl]urea], for which the inhibition at 1 µM in test [1] was 96.6%.

Regarding `CC(C)c1ccc2c(c1)c(-c1ccccc1Cl)c(NC(=O)Nc1ccc(F)cc1F)c(=O)n2C` [Example 19, N-[4-(2-chlorophenyl)-1,2-dihydro-6-isopropyl-1-methyl-2-oxo-3-quinolyl]-N'-(2,4-difluorophenyl)urea], in test [1], the inhibition at 1 µM amounted to 97.8% and the IC50 is 37 nM. As to `CCc1ccc2c(c1)c(-c1ccccc1Cl)c(NC(=O)Nc1c(C)cccc1C(C)C)c(=O)n2C` [Example 18, N-[4-(2-chlorophenyl)-1,2-dihydro-6-ethyl-1-methyl-2-oxo-3-quinolyl]-N'-(2-isopropyl-6-methylphenyl)urea], in test [1], the inhibition at 1 µM is 99.2% and the IC50 is 12 nM.

With `COc1cc(NC(=O)Nc2c(-c3ccccc3Cl)c3cc(C)c(C)cc3n(C)c2=O)cc(OC)c1OC(C)=O` [Example 15, N-(4-acetoxy-3,5-di-methoxyphenyl) -N'-[4-(2-chlorophenyl)-1,2-dihydro-1,6,7-trimethyl-2-oxo-3-quinolyl]urea], in test [1], the inhibition at 1 µM came to 90.1%.

Regarding `Cc1cc(C)c2c(c1)c(-c1ccccc1Cl)c(NC(=O)Nc1c(C)cccc1C(C)C)c(=O)n2C` [Example 5, N-[4-(2-chlorophenyl)-1,2-dihydro-1,6,8-trimethyl-2-oxo-3-quinolyl]-N'-(2-isopropyl-6-methylphenyl)urea], in test [1], the inhibition at 1 µM amounted to 98.2% and the IC50 was 18 nM. For `COc1ccc(-c2c(NC(=O)Nc3c(C)cccc3C(C)C)c(=O)n(C)c3ccc(C)cc23)cc1OC` [Example 22, N-[1,2-dihydro-4-(3,4-dimethoxyphenyl)-1,6-dimethyl-3-quinolyn]-N'-(2-isopropyl-6-methylphenyl)urea], in test [1], the inhibition at 1 µM amounted to 99% and the IC50 is 37 nM. Turning to `COc1nc2c(C)cc(C)cc2c(-c2ccccc2Cl)c1NC(=O)Nc1ccc(F)cc1F` [Example 12, N-[4-(2-chlorophenyl)-2-methoxy-6,8-dimethyl-3-quinolyl]-N -(2,4-difluorophenyl)urea], the inhibition at 1 µM in test [1] turned out to be 95.9%. Still for that read-out and setting: then `Cn1c(=O)c(NC(=O)Nc2ccc(F)cc2F)c(-c2ccccc2)c2cc(Cl)ccc21` [Example 7, N-(6-chloro-1,2-dihydro-1-methyl-2-oxo-4-phenyl-3-quinolyl)-N'-(2,4-difluorophenyl)urea], with 77.9%; and `CCn1c(=O)c(NC(=O)Nc2ccc(F)cc2F)c(-c2ccccc2Cl)c2cc(C)cc(C)c21` [Example 6, N-[4-(2-chlorophenyl)-1-ethyl-1,2-dihydro-6,8-di-methyl-2-oxo-3-quinolyl]-N'-(2,4-difluorophenyl)urea], with 97.9%. As to `Cc1ccccc1-c1c(NC(=O)Nc2c(C)cccc2C(C)C)c(=O)n(C)c2ccc(Cl)cc12` [Example 21, N-[6-chloro-1,2-dihydro-1-methyl-4-(2-methylphenyl)-2-oxo-3-quinolyl]-N'-(2-isopropyl-6-methylphenyl)urea], in test [1], the inhibition at 1 µM came to 99.4% and the IC50 was 17 nM. For the compound `Cn1c(=O)c(NC(=O)Nc2ccc(F)cc2F)c(-c2ccccc2Cl)c2cc(Cl)ccc21` [Example 1], in test [1], the inhibition at 1 µM stood at 96.8%.
